Test system: patients with advanced solid tumors
Experiment: First-in-human phase 1 dose-escalation study: safety, DLTs, adverse events
Format: in vivo
Excerpt: This multicenter first-in-human dose-escalation phase 1 study (clinicaltrials.gov identifier: NCT03272256) was designed to determine the MTD or RP2D and to evaluate the safety and tolerability of IM156. Secondary endpoints included PK characteristics, efficacy assessment (objective response rate [ORR], disease control rate [DCR], duration of response [DoR] and progression-free survival [PFS]). Furthermore, exploratory objectives included identification and profiling of IM156 metabolites, evaluations of exploratory PD markers of IM156, and evaluations of any potential relationship between putative biomarkers and safety/efficacy parameters of IM156. The study was conducted in accordance with Good Clinical Practice, the International Council for Harmonisation, and guidelines governing clinical study conduct and the ethical principles originating from the Declaration of Helsinki. The study was approved by each Institutional Review Board and patients provided written informed consent. Patients were enrolled at three sites in South Korea.
The initial dose and schedule of IM156 was chosen based on animal toxicology studies. […] IM156 was administered in the fasted state, with no food for at least 2 h before and 1 h after dosing.
Three DLT-evaluable patients were enrolled at each dose level. If there were no DLTs or other prohibitive adverse events (AEs), the Safety Committee was allowed to recommend escalation to the next highest dose level. If 1 DLT occurred in the first 3 DLT-evaluable patients, enrollment in that cohort was expanded to an additional 3 DLT-evaluable patients; if ≥ 2 DLTs were reported in a cohort, that dose was considered above the MTD.
Safety was assessed through vital signs, weight, laboratory assessments, physical examinations, electrocardiogram, and reporting of AEs as graded by the National Cancer Institute’s Common Terminology Criteria for Adverse Events v4.03 (NCI-CTCAE).
DLTs were defined as the following AEs if they were attributed as related to IM156: asymptomatic grade 4 neutropenia lasting for ≥ 5 days; febrile neutropenia, regardless of grade; grade 4 thrombocytopenia or grade 3 thrombocytopenia with bleeding; any grade ≥ 3 non-hematologic AE (except grade 3 hypertension and grade 3 nausea, vomiting or diarrhea for which proper measures for prevention and treatment were not implemented, and alopecia); blood lactate levels > 5 mmol; grade ≥ 2 AE prohibiting dosing of IM156 for ≥ 21 continuous days except for alterations in serum calcium or phosphorus levels. The safety analysis includes all patients who received at least one dose of study drug.
The safety population was defined as all patients who received at least one dose of IM156. The PK population was not defined in the protocol but included all patients with sufficient PK data to perform adequate PK modeling. The efficacy population included all patients who underwent at least one tumor imaging assessment while receiving IM156. Safety was assessed using descriptive statistics (e.g., DLTs, AEs, laboratory tests, physical examination, 12-lead ECG). The incidence and number of events were reported for the DLTs observed in Cycle 1 per dose group. […] Adverse events and TRAEs were standardized with the System Organ Class and the Preferred Term using the Medical Dictionary for Regulatory Activities v23.0. In addition, TEAEs, serious adverse events (SAEs), TEAE severity, and TEAEs leading to withdrawal were presented by dose group. Efficacy data were to be presented by Waterfall and Swim Lane plots. Time to event endpoints (e.g., DoR, PFS) were determined using Kaplan–Meier estimations with the median value for each endpoint summarized.

[1] = DL1 100 mg orally every other day (n=3)

For `NC(=Nc1ccc(OC(F)(F)F)cc1)N=C(N)N1CCCC1` [IM156], the “SAE Abdominal distension: Causality” value (100 mg QOD) was “Unlikely”, the “SAE Abdominal distension: Dose Interrupted” value (100 mg QOD) was “Yes” and the “SAE Abdominal distension: Grade” value (100 mg QOD) was 2. The “SAE Abdominal distension: Outcome” value (100 mg QOD) was “Recovered without sequelae”, the “SAE Gastric Obstruction: Causality” value (100 mg QOD) was “Unlikely” and the “SAE Gastric Obstruction: Dose Interrupted” value (100 mg QOD) was “Yes”. The “SAE Gastric Obstruction: Grade” value (100 mg QOD) was 3, the “SAE Gastric Obstruction: Outcome” value (100 mg QOD) was “Recovered without sequelae” and the “SAE Ileus: Causality” value (200 mg QOD) was “Unlikely”. The “SAE Ileus: Dose Interrupted” value (200 mg QOD) was “No”, the “SAE Ileus: Grade” value (200 mg QOD) was 3 and the “SAE Ileus: Outcome” value (200 mg QOD) was “Recovered without sequelae”. The “SAE Cystitis: Causality” value (800 mg QOD) was “Unlikely”, the “SAE Cystitis: Dose Interrupted” value (800 mg QOD) was “Yes” and the “SAE Cystitis: Grade” value (800 mg QOD) was 2. For the same compound, the “SAE Cystitis: Outcome” value (800 mg QOD) was “Recovered without sequelae”, the “SAE Worsen abdominal pain: Causality” value (800 mg QOD) was “Unlikely” and the “SAE Worsen abdominal pain: Dose Interrupted” value (800 mg QOD) was “Yes”. The “SAE Worsen abdominal pain: Grade” value (800 mg QOD) was 3, the “SAE Worsen abdominal pain: Outcome” value (800 mg QOD) was “Resolved to Grade 1” and the “SAE Akathisia: Causality” value (1,200 mg QD) was “Unlikely”. For the same compound, the “SAE Akathisia: Dose Interrupted” value (1,200 mg QD) was “No”, the “SAE Akathisia: Grade” value (1,200 mg QD) was 2 and the “SAE Akathisia: Outcome” value (1,200 mg QD) was “Recovered without sequelae”. For the same compound, the “SAE Lethargy: Causality” value (1,200 mg QD) was “Unlikely”, the “SAE Lethargy: Dose Interrupted” value (1,200 mg QD) was “Yes” and the “SAE Lethargy: Grade” value (1,200 mg QD) was 2. The “SAE Lethargy: Outcome” value (1,200 mg QD) was “Recovered without sequelae”, the “SAE Perforated Appendicitis: Causality” value (1,200 mg QD) was “Unlikely” and the “SAE Perforated Appendicitis: Dose Interrupted” value (1,200 mg QD) was “No”. For the same compound, the “SAE Perforated Appendicitis: Grade” value (1,200 mg QD) was 3, the “SAE Perforated Appendicitis: Outcome” value (1,200 mg QD) was “Recovered without sequelae” and the tolerability (1,200 mg QD, due to nausea) was “not well tolerated”. For the same compound, the “SAE Nausea: Causality” value (1,200 mg QOD) was “Possible”, the “SAE Nausea: Dose Interrupted” value (1,200 mg QOD) was “Yes” and the “SAE Nausea: Grade” value (1,200 mg QOD) was 3. The “trend of blood lactate levels with dose or exposure” value (100 to 1,200 mg) was “no trend”, the “dose-limiting toxicities (DLTs), all dose levels” value (100 to 1,200 mg QOD or QD, cycle 1) was “no DLTs” and the “TEAE Abdominal distension, grade 2” value (DL1 100 mg QOD (n=3)) was 1. For the same compound, the “TEAE Ascites, grade 1” value (DL1 100 mg QOD (n=3)) was 1, the “TEAE Blood creatinine increased, grade 1” value (DL1 100 mg QOD (n=3)) was 1 and the “TEAE Decreased appetite, grade 1” value (DL1 100 mg QOD (n=3)) was 1. For the same compound, the “TEAE Diarrhoea, grade 2” value (DL1 100 mg QOD (n=3)) was 1, the “TEAE Gastrointestinal pain, grade 2” value (DL1 100 mg QOD (n=3)) was 1 and the “TEAE Hypoalbuminaemia, grade 2” value (DL1 100 mg QOD (n=3)) was 1. The “TEAE Large intestinal obstruction, grade 2” value (DL1 100 mg QOD (n=3)) was 1, the “TEAE Nausea, grade 1” value (DL1 100 mg QOD (n=3)) was 1 and the “TEAE Obstruction gastric, grade 3” value (DL1 100 mg QOD (n=3)) was 1. For the same compound, the “TEAE Proctalgia, grade 2” value (DL1 100 mg QOD (n=3)) was 1, the “TEAE Pyrexia, grade 1” value (DL1 100 mg QOD (n=3)) was 1 and the “TEAE Vomiting, grade 1” value (DL1 100 mg QOD (n=3)) was 1. For the same compound, the “TRAE Abdominal Pain, > G3 (patients)” value (DL1 100 mg QOD oral, N = 3) was 0, the “TRAE Abdominal Pain, All grades (patients)” value (DL1 100 mg QOD oral, N = 3) was 0 and the “TRAE Blood Lactic Acid increased, > G3 (patients)” value (DL1 100 mg QOD oral, N = 3) was 0. For the same compound, the “TRAE Blood Lactic Acid increased, All grades (patients)” value (DL1 100 mg QOD oral, N = 3) was 0, the “TRAE Constipation, > G3 (patients)” value (DL1 100 mg QOD oral, N = 3) was 0 and the “TRAE Constipation, All grades (patients)” value (DL1 100 mg QOD oral, N = 3) was 0. The “TRAE Decreased appetite, > G3 (patients)” value (DL1 100 mg QOD oral, N = 3) was 0, the “TRAE Decreased appetite, All grades (patients)” value (DL1 100 mg QOD oral, N = 3) was 0 and the “TRAE Diarrhoea, > G3 (patients)” value (DL1 100 mg QOD oral, N = 3) was 0. The “TRAE Diarrhoea, All grades (patients)” value (DL1 100 mg QOD oral, N = 3) was 0, the “TRAE Fatigue, > G3 (patients)” value (DL1 100 mg QOD oral, N = 3) was 0 and the “TRAE Fatigue, All grades (patients)” value (DL1 100 mg QOD oral, N = 3) was 0. For the same compound, the “TRAE Insomnia, > G3 (patients)” value (DL1 100 mg QOD oral, N = 3) was 0, the “TRAE Insomnia, All grades (patients)” value (DL1 100 mg QOD oral, N = 3) was 0 and the “TRAE Nausea, > G3 (patients)” value (DL1 100 mg QOD oral, N = 3) was 0. For the same compound, the “TRAE Nausea, All grades (patients)” value (DL1 100 mg QOD oral, N = 3) was 0, the “TRAE Vomiting, > G3 (patients)” value (DL1 100 mg QOD oral, N = 3) was 0 and the “TRAE Vomiting, All grades (patients)” value (DL1 100 mg QOD oral, N = 3) was 0. For the same compound, the “TEAE Adrenal insufficiency grade 1” value [1] was 0, the “TEAE Adrenal insufficiency grade 2” value [1] was 0 and the “TEAE Adrenal insufficiency grade 3” value [1] was 0. The “TEAE Adrenal insufficiency grade 4” value [1] was 0, the “TEAE Anaemia grade 1” value [1] was 0 and the “TEAE Anaemia grade 2” value [1] was 1. For the same compound, the “TEAE Anaemia grade 3” value [1] was 0, the “TEAE Anaemia grade 4” value [1] was 0 and the “TEAE Appendicitis perforated grade 1” value [1] was 0. For the same compound, the “TEAE Appendicitis perforated grade 2” value [1] was 0, the “TEAE Appendicitis perforated grade 3” value [1] was 0 and the “TEAE Appendicitis perforated grade 4” value [1] was 0. For the same compound, the “TEAE Back pain grade 1” value [1] was 0, the “TEAE Back pain grade 2” value [1] was 0 and the “TEAE Back pain grade 3” value [1] was 0. The “TEAE Back pain grade 4” value [1] was 0, the “TEAE Cystitis grade 1” value [1] was 0 and the “TEAE Cystitis grade 2” value [1] was 0. The “TEAE Cystitis grade 3” value [1] was 0, the “TEAE Cystitis grade 4” value [1] was 0 and the “TEAE Dry skin grade 1” value [1] was 0. For the same compound, the “TEAE Dry skin grade 2” value [1] was 0, the “TEAE Dry skin grade 3” value [1] was 0 and the “TEAE Dry skin grade 4” value [1] was 0. The “TEAE Flank pain grade 1” value [1] was 0, the “TEAE Flank pain grade 2” value [1] was 0 and the “TEAE Flank pain grade 3” value [1] was 0. The “TEAE Flank pain grade 4” value [1] was 0, the “TEAE Hypertension grade 1” value [1] was 0 and the “TEAE Hypertension grade 2” value [1] was 0. The “TEAE Hypertension grade 3” value [1] was 0, the “TEAE Hypertension grade 4” value [1] was 0 and the “TEAE Hypotension grade 1” value [1] was 0. For the same compound, the “TEAE Hypotension grade 2” value [1] was 0, the “TEAE Hypotension grade 3” value [1] was 0 and the “TEAE Hypotension grade 4” value [1] was 0. The “TEAE Insomnia grade 1” value [1] was 0, the “TEAE Insomnia grade 2” value [1] was 0 and the “TEAE Insomnia grade 3” value [1] was 0. For the same compound, the “TEAE Insomnia grade 4” value [1] was 0, the “TEAE Pain in extremity grade 1” value [1] was 0 and the “TEAE Pain in extremity grade 2” value [1] was 0. The “TEAE Pain in extremity grade 3” value [1] was 0, the “TEAE Pain in extremity grade 4” value [1] was 0 and the “TEAE Pruritus grade 1” value [1] was 0. The “TEAE Pruritus grade 2” value [1] was 0, the “TEAE Pruritus grade 3” value [1] was 0 and the “TEAE Pruritus grade 4” value [1] was 0.
